In brackets after ≈: the same amount, converted by molar mass. Where two headings read alike, the source gives them in different places.
Tests used:
NL20 cells = test: Cytotoxicity assay (WST-1)
Method: (§1) Serial dilutions were performed using complete media (RPMI supplemented with 10% foetal bovine serum). The final concentration of DMSO for all test samples was not more than 0.4%.
(§2) Cytotoxicity was determined using the WST-1 assay (WST-1 cell proliferation reagent, Roche, Singapore). Exponentially growing NL20 cells were plated in 96-well plates at an optimized cell density of 3.5×10^4 cells/100 μl. The adherent cells were incubated overnight at 37° C. and 5% CO2 to allow attachment. After 48 h of treatment with test samples, the media were aspirated and replaced with 10% v/v WST-1 in complete media. The plates were incubated for 30 min. The absorbance in each well was quantitated at 440 nm against a reference wavelength of 650 nm using a microplate reader (EnSpire Multimode Plate Reader, PerkinElmer, USA).
(§3) Cell viability was expressed as a percentage of the vehicle control. […] Each reported value is the mean±SD from three independent experiments. The selectivity index (SI) was determined by taking the ratio of IC50 against P. falciparum and CC50 against NL20 cells.

in vitro = conditions: human
Method: as §1, §2, §3

[1] = test system: Plasmodium falciparum 3D7 (chloroquine-sensitive strain); test: In vitro drug sensitivity assay (modified WHO microtest), schizont maturation; assay type: cell-based
Method: (§4) For malaria culture, venous blood (not more than 50 ml) was collected by venepuncture from healthy adult volunteers. Host leukocytes were removed using a CF11 column, and packed infected red blood cells were used for the in vitro drug sensitivity assay. Ethical approval for this study was obtained from the Institutional Review Board, National University of Singapore (IRB protocol reference: B-14-056).
(§5) Parasites were thawed and grown in leukocyte-depleted red blood cells at 2% haematocrit at 37° C. in controlled conditions (3% oxygen, 4% carbon dioxide and 93% nitrogen), in RPMI 1640 tissue culture medium supplemented with 50 μg/ml hypoxanthine, 25 mM 4-(2-hydroxyethyl) piperazine-1-ethanesulfonic acid (HEPES), 0.3 g/L L-glutamine, 11 mM glucose, 25 mM NaHCO3, 2.5 μg/ml gentamicin and 0.5% w/v Albumax II.
(§6) Parasites were synchronized using sorbitol treatment. Red blood cells were resuspended in 5% (w/v) D-sorbitol and incubated at 37° C. for 20 minutes, after which the erythrocytes were washed twice, resuspended in RPMI and returned to culture conditions. Thin smears were made before and after each experiment to determine parasitaemia and parasite stage.
(§7) Crude extracts or fractions were preliminarily screened at a single concentration. For preliminary screening of isolated compounds, the starting concentrations used were 11.36 μg/ml and 5.953 μg/ml. Duplicates were performed. […] Seven concentrations of serial dilutions (two-fold) of each extract were added in duplicate on the 96-well pre-dosed drug plates (Nunc, Singapore). […] Triplicates were performed for IC50 determination.
(§8) 200 μl of a 2% haematocrit blood medium mixture consisting of RPMI 1640, […] gentamicin sulphate, 25 mM PEPES, 11 mM glucose, 200 μM hypoxanthine, and 0.5% w/v Albumax II (Gibco, Singapore) was added to each well of plates pre-dosed with the extracts. The parasites were cultured continuously in vented culture flasks in a gas chamber at 37° C. with 5% CO2 until they reached mature stage.
(§9) Thick blood smears were made from each well and stained with 5% Giemsa solution for 15 mins, and examined microscopically. The average number of schizonts (defined as parasites with five or more chromatin dots visible under microscopy) remaining at the end of the 42-48 hour incubation period per 100 parasites in each well was determined by microscopy, and normalized to the control well. Ring stage parasites and gametocytes were not included in the count. The dose-response curves were analysed using nonlinear regression analysis, and the concentration which inhibited 50% growth (IC50) was derived using an inhibitory sigmoid Emax model (Le Nagard et al. 2011).

[2] = test system: Plasmodium falciparum Dd2 (chloroquine-resistant strain); test: as above; assay type: cell-based
Method: as §4, §5, §6, §7, §8, §9

uninfected host RBCs = assay type: cell-based; conditions: human, 1 h
Method: The toxicity of anisolactone in uninfected host RBCs was evaluated using the haemolysis assay, according to a protocol described previously by Sarkar et al. (2016) with some modifications. Freshly obtained RBCs were washed thrice with PBS (pH 7.4). The haemolysis assay was performed at 2% hematocrit with two-fold serial dilutions from 0.1 mg/ml of test compounds in a final volume of 200 μl, followed by incubation at 37° C. for 1 h. 1% Triton-X (v/v) was used as a positive control. Non-specific haemolysis was corrected for by using untreated RBCs as negative control. After incubation, the plates were centrifuged at 2000 rpm for 5 min and the absorbance of the supernatant was measured at 540 nm using a spectrophotometric plate reader (Tecan Sunrise, Switzerland) to measure the amount of haemoglobin released upon RBC lysis. The percentage of haemolysis was calculated as follows: [(Optical density (OD)540 of sample−OD540 of PBS)/(OD540 of 1% Triton X-100−OD540 of PBS)]×100. The compounds were tested in triplicates. Ethics approval for this study was obtained from the Institutional Review Board, National University of Singapore (IRB protocol reference: B-14-056).

[3] = 3D7, read-out: IC50 (in μg/ml) against P. falciparum 3D7
[4] = 3D7, read-out: IC50 against P. falciparum 3D7 (Table 4)
[5] = 3D7, read-out: IC50 against P. falciparum 3D7 (molar value in brackets)
[6] = DD2, read-out: IC50 (in μg/ml) against P. falciparum Dd2
[7] = DD2, read-out: IC50 against P. falciparum Dd2 (molar value in brackets)

SMILES | SI (selectivity index) (NL20 cells; P. falciparum 3D7 IC50 versus NL20 CC50) | CC50 at 48 h (in vitro) | IC50 [1, 3] | IC50 [1, 4] | IC50 [1, 5] | IC50 [2, 6] | IC50 [2, 7] | cytotoxic effects on host cells (NL20) (NL20 cells) | IC50 ([1]; 3D7, as used for the selectivity index, read-out: IC50 against P. falciparum 3D7 (Table 4)) | IC50 ([1]; 3D7, n = 3, 42-48 hour incubation, read-out: IC50 (in μg/ml) against P. falciparum 3D7) | IC50 ([1]; 3D7, n=3, read-out: IC50 against P. falciparum 3D7 (molar value in brackets)) | % Haemolysis (uninfected host RBCs)
C[C@H]1[C@H](OC(=O)CCC(=O)O)O[C@@H]2O[C@@]3(C)CC[C@H]4[C@H](C)CC[C@@H]1[C@@]24OO3 [Artesunate, artesunate] | 8123 | 5.63 ± 0.82 µg/mL (≈ 14.6 µM) | 0.000693 ± 1.11e-08 µg/mL | 0.000693 µg/mL | 1.8 nM | 0.00211 ± 6.8e-07 µg/mL | 5.48 nM |  |  |  |  | 
CC1=CC(C/C(C)=C/COc2c3ccoc3cc3oc(=O)ccc23)OC1=O (centres unmarked) [Compound 1, anisolactone] |  |  |  |  |  |  |  | did not exhibit cytotoxic effects | 7.5 µg/mL | 7.5 µg/mL | 20500 nM | 0.99 ± 0.28%
CCN(CC)CCCC(C)Nc1ccnc2cc(Cl)ccc12 (centres unmarked) [Chloroquine, chloroquine diphosphate] |  |  | 0.0128 ± 1.4e-05 µg/mL | 0.0128 µg/mL | 24.4 nM | 0.16 ± 0.04 µg/mL | 310 nM |  |  |  |  | 
